Results: patent US20030236175A1, “Process for well fluids base oil via metathesis of alpha-olefins” (priority 2002, published 2003)

System: leptocheirus plumulosus
Assay type: in vivo
From the text: This protocol uses leptocheirus plumulosus in a 10-day sediment toxicity test using a reference standard C16-18 IO (internal olefin) (sometimes also designated as C16-C18 IO, C1618 IO, or C16-18 IO) having approximately 65% C16 and 35% C18 olefin.

With `CCCCCCCCC=CCCCCCCCC` [Example 11, 9-octadecene] the “Toxicity, mg/kg” value (LC50, 10-day sediment toxicity test, leptocheirus plumulosus) was 11,279 mg/kg and the Toxicity ratio (ratio of LC50 values, sample vs reference standard C16-18 IO (Equation 1), passing <= 1.0) was 0.63.
